Experimental data reported in US20260256792A1, “TREATMENT OF CHRONIC SPONTANEOUS URTICARIA BY ADMINISTERING (R)-2-[3-[4-AMINO-3-(2-FLUORO-4-PHENOXY-PHENYL)PYRAZOLO[3,4-D]PYRIMIDIN-1-YL]PIPERIDINE-1-CARBONYL]-4-METHYL-4-[4-(OXETAN-3-YL)PIPERAZIN-1-YL]PENT-2-ENENITRILE” (priority 2023, published 2026).

Test system: angioedema in CSU patients
Assay: Phase 2 CSU study: angioedema activity score over 7 days (AAS7)
Format: in vivo, human
Settings: for AAS7 = 0, RRD (%) for rilzabrutinib vs. placebo (95% CI) / AAS7 Post-baseline Mean (SD) / Participants with AAS7 = 0, Responder n (%) / AAS7 % Change difference for rilzabrutinib vs. placebo LS Mean (95% CI) / AAS7 Change difference for rilzabrutinib vs. placebo LS Mean (95% CI) / AAS7 Change from baseline LS Mean (SE) / AAS7 % Change from baseline LS Mean (SE) / AAS7 = 0, Non-responder n (%) / AAS7 = 0, OR (95% CI) for rilzabrutinib vs. placebo: angioedema at baseline; for Non-responder n (%), AAS7 = 0 / OR (95% CI) for rilzabrutinib vs. placebo, AAS7 = 0 / RRD (%) for rilzabrutinib vs. placebo (95% CI), AAS7 = 0 / Responder n (%), AAS7 = 0: outlier removed
Description: The study comprises a 12 week, randomized, double-blind, placebo-controlled, multi-center, dose-ranging efficacy and safety phase, followed by a 40 week open label extension (OLE) phase (see FIG. 1). The study consists of three phases and an optional OLE phase. […] The weekly angioedema activity score (AAS7) was proposed as a tertiary endpoint. […] Patients were to complete the AAS using the e-diary. The e-diary was to be used once daily on the same time of each day recording of participant's answers to the angioedema activity score over 7 days (AAS7) questionnaire.

[1] = 400 mg BID, Week 8, omalizumab-naïve
[2] = 400 mg BID, Week 9, omalizumab-naïve
[3] = 400 mg BID, Week 10, omalizumab-naïve
[4] = 400 mg BID, Week 11, omalizumab-naïve
[5] = 400 mg BID, Week 12, omalizumab-naïve
[6] = 400 mg QPM, Week 1, omalizumab-naïve
[7] = 400 mg QPM, Week 2, omalizumab-naïve
[8] = 400 mg QPM, Week 3, omalizumab-naïve
[9] = 400 mg QPM, Week 4, omalizumab-naïve

## CC(C)(C=C(C#N)C(=O)N1CCC[C@@H](n2nc(-c3ccc(Oc4ccccc4)cc3F)c3c(N)ncnc32)C1)N1CCN(C2COC2)CC1 [rilzabrutinib, (R)-2-[3-[4-amino-3-(2-fluoro-4-phenoxy-phenyl)pyrazolo[3,4-d]pyrimidin-1-yl]piperidine-1-carbonyl]-4-methyl-4-[4-(oxetan-3-yl)piperazin-1-yl]pent-2-enenitrile]
[1]
  AAS7 = 0, RRD (%) for rilzabrutinib vs. placebo (95% CI): 26.4 %
  AAS7 Post-baseline Mean (SD): 9.97 (16.69)
  Participants with AAS7 = 0, Responder n (%): 13 (50.0) n (%)
400 mg BID, Week 9, ITT
  AAS7 % Change difference for rilzabrutinib vs. placebo LS Mean (95% CI): −26.88 (−56.35, 2.58) %
  AAS7 Change difference for rilzabrutinib vs. placebo LS Mean (95% CI): −11.25 (−21.79, −0.72)
  AAS7 Change from baseline LS Mean (SE): −40.70 (4.08)
  AAS7 Post-baseline Mean (SD): 10.00 (17.78)
[2]
  Non-responder n (%), AAS7 = 0: 18 (51.4) n (%)
  OR (95% CI) for rilzabrutinib vs. placebo, AAS7 = 0: 0.919
  RRD (%) for rilzabrutinib vs. placebo (95% CI), AAS7 = 0: −2.1 %
  Responder n (%), AAS7 = 0: 17 (48.6) n (%)
  AAS7 % Change from baseline LS Mean (SE): −74.80 (12.27) %
  AAS7 = 0, Non-responder n (%): 14 (53.8) n (%)
  AAS7 = 0, OR (95% CI) for rilzabrutinib vs. placebo: 1.787
  AAS7 = 0, RRD (%) for rilzabrutinib vs. placebo (95% CI): 14.5 %
  AAS7 Post-baseline Mean (SD): 10.87 (18.30)
  Participants with AAS7 = 0, Responder n (%): 12 (46.2) n (%)
400 mg BID, Week 10, ITT
  AAS7 % Change difference for rilzabrutinib vs. placebo LS Mean (95% CI): −15.09 (−55.38, 25.21) %
  AAS7 % Change from baseline LS Mean (SE): −64.07 (15.65) %
  AAS7 Change difference for rilzabrutinib vs. placebo LS Mean (95% CI): −8.79 (−20.40, 2.82)
  AAS7 Change from baseline LS Mean (SE): −39.12 (4.47)
  AAS7 Post-baseline Mean (SD): 12.72 (19.89)
[3]
  Non-responder n (%), AAS7 = 0: 19 (54.3) n (%)
  OR (95% CI) for rilzabrutinib vs. placebo, AAS7 = 0: 0.945
  RRD (%) for rilzabrutinib vs. placebo (95% CI), AAS7 = 0: −1.4 %
  Responder n (%), AAS7 = 0: 16 (45.7) n (%)
  AAS7 % Change from baseline LS Mean (SE): −60.11 (16.65) %
  AAS7 = 0, Non-responder n (%): 15 (57.7) n (%)
  AAS7 = 0, OR (95% CI) for rilzabrutinib vs. placebo: 1.734
  AAS7 = 0, RRD (%) for rilzabrutinib vs. placebo (95% CI): 13.1 %
  AAS7 Post-baseline Mean (SD): 13.93 (20.43)
  Participants with AAS7 = 0, Responder n (%): 11 (42.3) n (%)
400 mg BID, Week 11, ITT
  AAS7 % Change difference for rilzabrutinib vs. placebo LS Mean (95% CI): −23.43 (−51.36, 4.50) %
  AAS7 % Change from baseline LS Mean (SE): −84.81 (10.85) %
  AAS7 Change difference for rilzabrutinib vs. placebo LS Mean (95% CI): −8.17 (−19.55, 3.20)
  AAS7 Change from baseline LS Mean (SE): −42.03 (4.41)
  AAS7 Post-baseline Mean (SD): 10.31 (18.47)
[4]
  Non-responder n (%), AAS7 = 0: 14 (40.0) n (%)
  OR (95% CI) for rilzabrutinib vs. placebo, AAS7 = 0: 1.516
  RRD (%) for rilzabrutinib vs. placebo (95% CI), AAS7 = 0: 10.4 %
  Responder n (%), AAS7 = 0: 21 (60.0) n (%)
  AAS7 = 0, Non-responder n (%): 13 (50.0) n (%)
  AAS7 = 0, OR (95% CI) for rilzabrutinib vs. placebo: 2.010
  AAS7 = 0, RRD (%) for rilzabrutinib vs. placebo (95% CI): 17.8 %
  AAS7 Post-baseline Mean (SD): 11.30 (19.07)
  Participants with AAS7 = 0, Responder n (%): 13 (50.0) n (%)
400 mg BID, Week 12, ITT
  AAS7 % Change from baseline LS Mean (SE): −87.51 (10.12) %
  AAS7 Change difference for rilzabrutinib vs. placebo LS Mean (95% CI): −7.07 (−17.69, 3.54)
  AAS7 Change from baseline LS Mean (SE): −42.38 (4.13)
  AAS7 Post-baseline Mean (SD): 10.67 (17.53)
[5]
  patients with angioedema score (AAS7) of 0: 42.3%
  Non-responder n (%), AAS7 = 0: 18 (51.4) n (%)
  OR (95% CI) for rilzabrutinib vs. placebo, AAS7 = 0: 0.925
  RRD (%) for rilzabrutinib vs. placebo (95% CI), AAS7 = 0: −1.9 %
  Responder n (%), AAS7 = 0: 17 (48.6) n (%)
  AAS7 = 0, Non-responder n (%): 15 (57.7) n (%)
  AAS7 = 0, OR (95% CI) for rilzabrutinib vs. placebo: 1.627
  AAS7 = 0, RRD (%) for rilzabrutinib vs. placebo (95% CI): 11.3 %
  AAS7 Change difference for rilzabrutinib vs. placebo LS Mean (95% CI): −8.14 (−19.74, 3.45)
  AAS7 Change from baseline LS Mean (SE): −41.53 (4.39)
  AAS7 Post-baseline Mean (SD): 11.73 (18.07)
  Participants with AAS7 = 0, Responder n (%): 11 (42.3) n (%)
400 mg BID, within one week of initiating treatment, omalizumab-naïve
  patients achieving angioedema score (AAS7) of 0: 42.3%
400 mg QPM, Week 1, ITT
  AAS7 % Change difference for rilzabrutinib vs. placebo LS Mean (95% CI): −12.18 (−42.38, 18.02) %
  AAS7 % Change from baseline LS Mean (SE): −32.14 (9.37) %
  AAS7 Change difference for rilzabrutinib vs. placebo LS Mean (95% CI): −5.18 (−18.04, 7.67)
  AAS7 Change from baseline LS Mean (SE): −19.68 (3.99)
  AAS7 Post-baseline Mean (SD): 34.57 (21.50)
[6]
  Non-responder n (%), AAS7 = 0: 24 (64.9) n (%)
  OR (95% CI) for rilzabrutinib vs. placebo, AAS7 = 0: 1.428
  RRD (%) for rilzabrutinib vs. placebo (95% CI), AAS7 = 0: 8.1 %
  Responder n (%), AAS7 = 0: 13 (35.1) n (%)
  AAS7 % Change difference for rilzabrutinib vs. placebo LS Mean (95% CI): −14.70 (−47.27, 17.88) %
  AAS7 % Change from baseline LS Mean (SE): −31.74 (9.84) %
  AAS7 = 0, OR (95% CI) for rilzabrutinib vs. placebo: 3.545
  AAS7 = 0, RRD (%) for rilzabrutinib vs. placebo (95% CI): 9.1 %
  AAS7 Change difference for rilzabrutinib vs. placebo LS Mean (95% CI): −5.57 (−19.34, 8.21)
  AAS7 Change from baseline LS Mean (SE): −19.33 (4.16)
  AAS7 Post-baseline Mean (SD): 34.85 (21.86)
400 mg QPM, Week 2, ITT
  AAS7 % Change difference for rilzabrutinib vs. placebo LS Mean (95% CI): 4.26 (−27.23, 35.76) %
  AAS7 Change from baseline LS Mean (SE): −21.54 (4.19)
  AAS7 Post-baseline Mean (SD): 32.95 (23.02)
[7]
  Non-responder n (%), AAS7 = 0: 24 (64.9) n (%)
  OR (95% CI) for rilzabrutinib vs. placebo, AAS7 = 0: 0.875
  RRD (%) for rilzabrutinib vs. placebo (95% CI), AAS7 = 0: −3.3 %
  Responder n (%), AAS7 = 0: 13 (35.1) n (%)
  AAS7 % Change difference for rilzabrutinib vs. placebo LS Mean (95% CI): 0.88 (−32.86, 34.63) %
  AAS7 % Change from baseline LS Mean (SE): −36.33 (12.38) %
  AAS7 = 0, OR (95% CI) for rilzabrutinib vs. placebo: 0.514
  AAS7 = 0, RRD (%) for rilzabrutinib vs. placebo (95% CI): −9.2 %
  AAS7 Post-baseline Mean (SD): 33.25 (23.40)
400 mg QPM, Week 3, ITT
  AAS7 % Change difference for rilzabrutinib vs. placebo LS Mean (95% CI): 15.17 (−24.59, 54.94) %
  AAS7 % Change from baseline LS Mean (SE): −33.35 (14.94) %
  AAS7 Change difference for rilzabrutinib vs. placebo LS Mean (95% CI): 2.33 (−9.09, 13.74)
  AAS7 Change from baseline LS Mean (SE): −21.82 (4.29)
  AAS7 Post-baseline Mean (SD): 32.48 (20.51)
[8]
  Non-responder n (%), AAS7 = 0: 25 (67.6) n (%)
  OR (95% CI) for rilzabrutinib vs. placebo, AAS7 = 0: 1.041
  RRD (%) for rilzabrutinib vs. placebo (95% CI), AAS7 = 0: 0.9 %
  Responder n (%), AAS7 = 0: 12 (32.4) n (%)
  AAS7 % Change difference for rilzabrutinib vs. placebo LS Mean (95% CI): 14.44 (−28.58, 57.46) %
  AAS7 % Change from baseline LS Mean (SE): −33.23 (15.73) %
  AAS7 = 0, Non-responder n (%): 23 (85.2) n (%)
  AAS7 = 0, OR (95% CI) for rilzabrutinib vs. placebo: 0.686
  AAS7 = 0, RRD (%) for rilzabrutinib vs. placebo (95% CI): −5.0 %
  AAS7 Post-baseline Mean (SD): 32.60 (20.89)
  Participants with AAS7 = 0, Responder n (%): 4 (14.8) n (%)
400 mg QPM, Week 4, ITT
  AAS7 % Change difference for rilzabrutinib vs. placebo LS Mean (95% CI): −12.88 (−48.34, 22.58) %
  AAS7 % Change from baseline LS Mean (SE): −49.47 (13.21) %
  AAS7 Change difference for rilzabrutinib vs. placebo LS Mean (95% CI): −2.68 (−13.70, 8.35)
  AAS7 Change from baseline LS Mean (SE): −25.28 (4.12)
  AAS7 Post-baseline Mean (SD): 29.42 (20.30)
[9]
  Non-responder n (%), AAS7 = 0: 23 (62.2) n (%)
  OR (95% CI) for rilzabrutinib vs. placebo, AAS7 = 0: 0.874
  RRD (%) for rilzabrutinib vs. placebo (95% CI), AAS7 = 0: −3.0 %
  Responder n (%), AAS7 = 0: 14 (37.8) n (%)
  AAS7 % Change difference for rilzabrutinib vs. placebo LS Mean (95% CI): −19.26 (−57.48, 18.97) %
  AAS7 % Change from baseline LS Mean (SE): −49.19 (13.84) %
